# Experimental data reported in patent EP3521435A1, “A HIGH STRINGENCY SELECTION SYSTEM FOR PROTEIN EXPRESSION IN PROLINE-AUXOTROPHIC CELLS” (Bayer AG, priority 2018, dated 2019).
# How the values were obtained:
# CHO-K1 cells [1] = experiment: Fed-batch fermentation in shake flasks of human IgG1 expressing stable cell populations; type: cell-based, Chinese hamster; settings: non-selecting conditions; for Productivity profile: human IgG1
# CHO-K1 cells [2] = experiment: as above; type: cell-based, Chinese hamster; settings: selected in CD-Fusion + 10 µg/ml Puromycin (pJF1576), non-selecting conditions; for Productivity profile: human IgG1
# Excerpt: To test the performance of P5CS selection in combination with DHP in a production cell line development setting (i.e. only a single selection marker in expression vector), vectors with P5CS selection marker in place of Puromycin selection marker containing human IgG1 expression cassettes were generated and tested. For this experiment, the vector pJF1979 was taken as a reference, with Puromycin selection marker placed downstream of the human IgG1 expression cassette. For comparison, the vectors pJF1969 and pJF1970 were used, which contained short and long isoform of P5CS in place of Puromycin selection marker downstream of human IgG1 expression cassette. As control, vector pJF1576 from Example 8 was used, which contained both P5CS (upstream of human IgG1 expression cassette) and Puromycin (downstream of human IgG1 expression cassette) selection markers. […] The fed-batch was without pH control during cultivation and no additional glucose was fed apart from that present in feeding solutions. Table 22, Table 23 and Table 24 show viable cell density, viability and productivity profiles of cell populations cultured in fed-batch fermentation in shake flasks under non-selecting conditions (i.e. production medium containing proline and no additional selective agents like Puromycin or DHP) after inoculation at 3e5 viable cells/ml. […] Table 21: Cell viabilities determined post-transfection on day 21.
# murine P5CS long isoform = target: T1, murine P5CS long isoform (Mus musculus, UniProt Q9Z110); settings: Hu et al.; cited from earlier work
# T1 sequence (Q9Z110 1-795): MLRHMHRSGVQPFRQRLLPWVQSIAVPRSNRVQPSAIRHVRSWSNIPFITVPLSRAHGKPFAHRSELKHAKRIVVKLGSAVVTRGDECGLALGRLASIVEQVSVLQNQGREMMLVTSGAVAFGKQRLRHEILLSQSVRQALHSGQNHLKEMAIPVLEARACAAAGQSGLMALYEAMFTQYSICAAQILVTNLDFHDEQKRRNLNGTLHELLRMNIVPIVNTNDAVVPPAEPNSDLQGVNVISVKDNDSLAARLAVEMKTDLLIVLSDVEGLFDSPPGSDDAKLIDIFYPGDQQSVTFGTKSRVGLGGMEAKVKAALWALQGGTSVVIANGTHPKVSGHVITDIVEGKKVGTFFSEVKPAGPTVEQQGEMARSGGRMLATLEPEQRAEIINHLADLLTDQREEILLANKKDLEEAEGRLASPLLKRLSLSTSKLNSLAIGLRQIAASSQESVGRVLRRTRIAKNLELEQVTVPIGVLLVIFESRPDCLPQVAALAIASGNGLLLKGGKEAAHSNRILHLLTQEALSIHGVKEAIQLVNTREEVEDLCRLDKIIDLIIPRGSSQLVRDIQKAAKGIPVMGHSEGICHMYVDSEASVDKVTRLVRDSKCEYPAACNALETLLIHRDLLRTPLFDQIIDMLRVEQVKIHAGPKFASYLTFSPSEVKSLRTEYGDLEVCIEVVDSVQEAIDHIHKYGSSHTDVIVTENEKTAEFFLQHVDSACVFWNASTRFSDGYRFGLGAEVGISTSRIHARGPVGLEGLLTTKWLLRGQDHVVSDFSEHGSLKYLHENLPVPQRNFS
# [3] = Day 3 after inoculation, selected in CD-Fusion + 10 µg/ml Puromycin (pJF1576)
# [4] = Day 3 after inoculation, selected in CD-Fusion + 10 µg/ml Puromycin (pJF1579)
# [5] = Day 5 after inoculation, selected in CD-Fusion + 10 µg/ml Puromycin (pJF1579)
# [6] = Day 5 after inoculation, selected in CD-Fusion + 10 µg/ml Puromycin (pJF1576)
# [7] = Day 7 after inoculation, selected in CD-Fusion + 10 µg/ml Puromycin (pJF1579)
# [8] = Day 10 after inoculation, selected in CD-Fusion + 10 µg/ml Puromycin (pJF1576)
# [9] = Day 10 after inoculation, selected in CD-Fusion + 10 µg/ml Puromycin (pJF1579)
# [10] = Day 12 after inoculation, selected in CD-Fusion + 10 µg/ml Puromycin (pJF1579)
# [11] = Day 14 after inoculation, selected in CD-Fusion + 10 µg/ml Puromycin (pJF1576)
# [12] = Day 14 after inoculation, selected in CD-Fusion + 10 µg/ml Puromycin (pJF1579)
smiles,measurement,setting,value
COc1ccc(C[C@H](N)C(=O)N[C@H]2[C@@H](O)[C@H](n3cnc4c(N(C)C)ncnc43)O[C@@H]2CO)cc1 [Puromycin],Viability profile,"CHO-K1 cells [1]; Day 0 after inoculation, selected in CD-Fusion + 10 µg/ml Puromycin (pJF1576)",99.8%
same,Viability profile,"CHO-K1 cells [1]; Day 0 after inoculation, selected in CD-Fusion + 10 µg/ml Puromycin (pJF1579)",99.8%
same,Productivity profile,CHO-K1 cells [1]; [3],13.6 mg/L
same,Productivity profile,CHO-K1 cells [1]; [4],12.4 mg/L
same,Viability profile,CHO-K1 cells [1]; [3],99.9%
same,Viable cell density profile,CHO-K1 cells [1]; [3],"1,4E +06 VCD/ml"
same,Viability profile,CHO-K1 cells [1]; [4],99.8%
same,Viable cell density profile,CHO-K1 cells [1]; [4],"1,8E +06 VCD/ml"
same,Productivity profile,CHO-K1 cells [1]; [5],24.4 mg/L
same,Viability profile,CHO-K1 cells [1]; [6],99.8%
same,Viable cell density profile,CHO-K1 cells [1]; [6],"4,8E +06 VCD/ml"
same,Viability profile,CHO-K1 cells [1]; [5],99.9%
same,Viable cell density profile,CHO-K1 cells [1]; [5],"5,6E +06 VCD/ml"
same,Productivity profile,CHO-K1 cells [1]; [7],60.0 mg/L
same,Viable cell density profile,"CHO-K1 cells [1]; Day 7 after inoculation, selected in CD-Fusion + 10 µg/ml Puromycin (pJF1576)","9,5E +06 VCD/ml"
same,Viability profile,CHO-K1 cells [1]; [7],99.2%
same,Viable cell density profile,CHO-K1 cells [1]; [7],"1,2E +07 VCD/ml"
same,Productivity profile,CHO-K1 cells [1]; [8],182.0 mg/L
same,Productivity profile,CHO-K1 cells [1]; [9],155.1 mg/L
same,Viable cell density profile,CHO-K1 cells [1]; [8],"1,2E +07 VCD/ml"
same,Viability profile,CHO-K1 cells [1]; [9],97.9%
same,Viable cell density profile,CHO-K1 cells [1]; [9],"1,5E +07 VCD/ml"
same,Productivity profile,CHO-K1 cells [1]; [10],265.9 mg/L
same,Viability profile,"CHO-K1 cells [1]; Day 12 after inoculation, selected in CD-Fusion + 10 µg/ml Puromycin (pJF1576)",96.2%
same,Viability profile,CHO-K1 cells [1]; [10],97.5%
same,Viable cell density profile,CHO-K1 cells [1]; [10],"1,0E +07 VCD/ml"
same,Productivity profile,CHO-K1 cells [1]; [11],442.2 mg/L
same,Productivity profile,CHO-K1 cells [1]; [12],372.0 mg/L
same,Viability profile,CHO-K1 cells [1]; [11],86.2%
same,Viable cell density profile,CHO-K1 cells [1]; [11],"7,4E +06 VCD/ml"
same,Viability profile,CHO-K1 cells [1]; [12],92.7%
same,Viable cell density profile,CHO-K1 cells [1]; [12],"9,7E +06 VCD/ml"
same,Productivity profile,CHO-K1 cells [2]; Day 5 after inoculation,26.6 mg/L
same,Productivity profile,CHO-K1 cells [2]; Day 7 after inoculation,68.9 mg/L
same,Viability profile,CHO-K1 cells [2]; Day 7 after inoculation,99.3%
same,Viability profile,CHO-K1 cells [2]; Day 10 after inoculation,97.0%
same,Productivity profile,CHO-K1 cells [2]; Day 12 after inoculation,304.9 mg/L
same,Viable cell density profile,CHO-K1 cells [2]; Day 12 after inoculation,"9,1E +06 VCD/ml"
"NCCC[C@H](N)C(=O)O [Orn, L-Ornithine]",Ornithine inhibition,murine P5CS long isoform,insensitive
